Experimental data: ChEMBL document CHEMBL1909294, “Translating clinical findings into knowledge in drug safety evaluation--drug induced liver injury prediction system (DILIps)” (PLoS Comput Biol, 2011)

What was measured:
Hepatotoxicity [1] = test system: Hepatotoxicity;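 for HepSE elevated liver function tests: hepatic side effect score for raised liver function tests, as recorded in the DILIps training set used for predicting drug-induced liver injury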; for HepSE hepatic failure: call rule not given here;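 for HepSE hepatic necrosis: score of hepatic side effects for hepatic necrosis, drawn from the training data of DILIps, a prediction system for drug-induced liver injury; call rule not given here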;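 for HepSE hepatomegaly: hepatic side effect score for hepatomegaly, taken from the training set of the DILIps drug-induced liver injury prediction system; call rule not given here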; for HepSE liver disease: call rule not given here;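 for HepSE liver fatty: hepatic side effect score for fatty liver, taken from the DILIps training set for predicting drug-induced liver injury; call rule not given here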;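 for HepSE liver function tests abnormal: hepatic side effect score taken from the DILIps (drug-induced liver injury prediction system) training data, here covering abnormal liver function test findings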
Hepatotoxicity [2] = test system: Hepatotoxicity; remark: listed apart in the source;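 for HepSE elevated liver function tests: hepatic side effect score for raised liver function tests, as recorded in the DILIps training set used for predicting drug-induced liver injury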; for HepSE hepatic failure: call rule not given here;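 for HepSE hepatic necrosis: score of hepatic side effects for hepatic necrosis, drawn from the training data of DILIps, a prediction system for drug-induced liver injury; call rule not given here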;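 for HepSE hepatomegaly: hepatic side effect score for hepatomegaly, taken from the training set of the DILIps drug-induced liver injury prediction system; call rule not given here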; for HepSE liver disease: call rule not given here;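 for HepSE liver fatty: hepatic side effect score for fatty liver, taken from the DILIps training set for predicting drug-induced liver injury; call rule not given here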;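 for HepSE liver function tests abnormal: hepatic side effect score taken from the DILIps (drug-induced liver injury prediction system) training data, here covering abnormal liver function test findings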
Hepatotoxicity [3] = test system: Hepatotoxicity; remark: listed apart in the source;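 for HepSE elevated liver function tests: hepatic side effect score for raised liver function tests, as recorded in the DILIps training set used for predicting drug-induced liver injury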; for HepSE hepatic failure: call rule not given here;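 for HepSE hepatic necrosis: score of hepatic side effects for hepatic necrosis, drawn from the training data of DILIps, a prediction system for drug-induced liver injury; call rule not given here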; for HepSE liver disease: call rule not given here;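 for HepSE liver fatty: hepatic side effect score for fatty liver, taken from the DILIps training set for predicting drug-induced liver injury; call rule not given here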;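 for HepSE liver function tests abnormal: hepatic side effect score taken from the DILIps (drug-induced liver injury prediction system) training data, here covering abnormal liver function test findings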
Hepatotoxicity [4] = test system: Hepatotoxicity; remark: listed apart in the source;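 for HepSE elevated liver function tests: hepatic side effect score for raised liver function tests, as recorded in the DILIps training set used for predicting drug-induced liver injury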; for HepSE hepatic failure: call rule not given here;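 for HepSE hepatic necrosis: score of hepatic side effects for hepatic necrosis, drawn from the training data of DILIps, a prediction system for drug-induced liver injury; call rule not given here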; for HepSE liver disease: call rule not given here;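 for HepSE liver fatty: hepatic side effect score for fatty liver, taken from the DILIps training set for predicting drug-induced liver injury; call rule not given here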;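 for HepSE liver function tests abnormal: hepatic side effect score taken from the DILIps (drug-induced liver injury prediction system) training data, here covering abnormal liver function test findings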
Hepatotoxicity [5] = test system: Hepatotoxicity; remark: listed apart in the source; for HepSE hepatic failure: call rule not given here; for HepSE liver disease: call rule not given here
Hepatotoxicity [6] = test system: Hepatotoxicity; remark: listed apart in the source; for HepSE hepatic failure: call rule not given here; for HepSE liver disease: call rule not given here
Hepatotoxicity [7] = test system: Hepatotoxicity; remark: listed apart in the source
Hepatotoxicity [8] = test system: Hepatotoxicity; remark: listed apart in the source
Hepatotoxicity [9] = test system: Hepatotoxicity; remark: listed apart in the source
Hepatotoxicity [10] = test system: Hepatotoxicity; remark: listed apart in the source
Hepatotoxicity [11] = test system: Hepatotoxicity; remark: listed apart in the source
Hepatotoxicity [12] = test system: Hepatotoxicity; remark: listed apart in the source
Hepatotoxicity [13] = test system: Hepatotoxicity; remark: listed apart in the source
Hepatotoxicity [14] = test system: Hepatotoxicity; remark: listed apart in the source

## Cc1[nH]c(=O)c(C#N)cc1-c1ccncc1 [MILRINONE]
Hepatotoxicity [1]
  HepSE_elevated liver function tests: 0
Hepatotoxicity [2]
  HepSE_liver fatty: 0
Hepatotoxicity [3]
  HepSE_hepatic necrosis: 0
Hepatotoxicity [4]
  HepSE_bilirubinemia: 0
Hepatotoxicity [5]
  HepSE_liver disease: 0
Hepatotoxicity [6]
  HepSE_cholelithiasis: 0
Hepatotoxicity [7]
  HepSE_hepatitis: 0
Hepatotoxicity [8]
  HepSE_hepatic failure: 0
Hepatotoxicity [9]
  HepSE_liver function tests abnormal: 0
Hepatotoxicity [10]
  HepSE_hepatomegaly: 0
Hepatotoxicity [11]
  HepSE_cirrhosis: 0
Hepatotoxicity [12]
  HepSE_jaundice: 0
Hepatotoxicity [13]
  HepSE_Combined Scores: 0
Hepatotoxicity [14]
  HepSE_cholecystitis: 0

## CN(C)c1ccc(O)c2c1C[C@H]1C[C@H]3[C@H](N(C)C)C(O)=C(C(N)=O)C(=O)[C@@]3(O)C(O)=C1C2=O [MINOCYCLINE]
Hepatotoxicity [1]
  HepSE_elevated liver function tests: 0
Hepatotoxicity [2]
  HepSE_liver fatty: 0
Hepatotoxicity [3]
  HepSE_hepatic necrosis: 0
Hepatotoxicity [4]
  HepSE_bilirubinemia: 1
Hepatotoxicity [5]
  HepSE_liver disease: 0
Hepatotoxicity [6]
  HepSE_cholelithiasis: 0
Hepatotoxicity [7]
  HepSE_hepatitis: 1
Hepatotoxicity [8]
  HepSE_hepatic failure: 1
Hepatotoxicity [9]
  HepSE_liver function tests abnormal: 0
Hepatotoxicity [10]
  HepSE_hepatomegaly: 0
Hepatotoxicity [11]
  HepSE_cirrhosis: 0
Hepatotoxicity [12]
  HepSE_jaundice: 1
Hepatotoxicity [13]
  HepSE_Combined Scores: 4
Hepatotoxicity [14]
  HepSE_cholecystitis: 0

## Nc1cc(N2CCCCC2)nc(N)[n+]1[O-] [MINOXIDIL]
Hepatotoxicity [1]
  HepSE_elevated liver function tests: 0
Hepatotoxicity [2]
  HepSE_liver fatty: 0
Hepatotoxicity [3]
  HepSE_hepatic necrosis: 0
Hepatotoxicity [4]
  HepSE_bilirubinemia: 0
Hepatotoxicity [5]
  HepSE_liver disease: 0
Hepatotoxicity [6]
  HepSE_cholelithiasis: 0
Hepatotoxicity [7]
  HepSE_hepatitis: 0
Hepatotoxicity [8]
  HepSE_hepatic failure: 0
Hepatotoxicity [9]
  HepSE_liver function tests abnormal: 0
Hepatotoxicity [10]
  HepSE_hepatomegaly: 0
Hepatotoxicity [11]
  HepSE_cirrhosis: 0
Hepatotoxicity [12]
  HepSE_jaundice: 0
Hepatotoxicity [13]
  HepSE_Combined Scores: 0
Hepatotoxicity [14]
  HepSE_cholecystitis: 0

## CN1CCN2c3ncccc3Cc3ccccc3C2C1 (configuration not stated) [MIRTAZAPINE]
Hepatotoxicity [1]
  HepSE_elevated liver function tests: 0
Hepatotoxicity [2]
  HepSE_liver fatty: 0
Hepatotoxicity [3]
  HepSE_hepatic necrosis: 0
Hepatotoxicity [4]
  HepSE_bilirubinemia: 0
Hepatotoxicity [5]
  HepSE_liver disease: 0
Hepatotoxicity [6]
  HepSE_cholelithiasis: 0
Hepatotoxicity [7]
  HepSE_hepatitis: 0
Hepatotoxicity [8]
  HepSE_hepatic failure: 0
Hepatotoxicity [9]
  HepSE_liver function tests abnormal: 1
Hepatotoxicity [10]
  HepSE_hepatomegaly: 0
Hepatotoxicity [11]
  HepSE_cirrhosis: 1
Hepatotoxicity [12]
  HepSE_jaundice: 0
Hepatotoxicity [13]
  HepSE_Combined Scores: 3
Hepatotoxicity [14]
  HepSE_cholecystitis: 1

## CCCCC(C)(O)C/C=C/[C@H]1[C@H](O)CC(=O)[C@@H]1CCCCCCC(=O)OC (some centres not stated) [MISOPROSTOL]
Hepatotoxicity [1]
  HepSE_elevated liver function tests: 0
Hepatotoxicity [2]
  HepSE_liver fatty: 0
Hepatotoxicity [3]
  HepSE_hepatic necrosis: 0
Hepatotoxicity [4]
  HepSE_bilirubinemia: 0
Hepatotoxicity [5]
  HepSE_liver disease: 0
Hepatotoxicity [6]
  HepSE_cholelithiasis: 0
Hepatotoxicity [7]
  HepSE_hepatitis: 0
Hepatotoxicity [8]
  HepSE_hepatic failure: 0
Hepatotoxicity [9]
  HepSE_liver function tests abnormal: 0
Hepatotoxicity [10]
  HepSE_hepatomegaly: 0
Hepatotoxicity [11]
  HepSE_cirrhosis: 0
Hepatotoxicity [12]
  HepSE_jaundice: 0
Hepatotoxicity [13]
  HepSE_Combined Scores: 0
Hepatotoxicity [14]
  HepSE_cholecystitis: 0

## Clc1ccc(C(c2ccccc2Cl)C(Cl)Cl)cc1 (configuration not stated) [MITOTANE]
Hepatotoxicity [1]
  HepSE_elevated liver function tests: 0
Hepatotoxicity [2]
  HepSE_liver fatty: 0
Hepatotoxicity [3]
  HepSE_hepatic necrosis: 0
Hepatotoxicity [4]
  HepSE_bilirubinemia: 0
Hepatotoxicity [5]
  HepSE_liver disease: 0
Hepatotoxicity [6]
  HepSE_cholelithiasis: 0
Hepatotoxicity [7]
  HepSE_hepatitis: 0
Hepatotoxicity [8]
  HepSE_hepatic failure: 0
Hepatotoxicity [9]
  HepSE_liver function tests abnormal: 0
Hepatotoxicity [10]
  HepSE_hepatomegaly: 0
Hepatotoxicity [11]
  HepSE_cirrhosis: 0
Hepatotoxicity [12]
  HepSE_jaundice: 0
Hepatotoxicity [13]
  HepSE_Combined Scores: 0
Hepatotoxicity [14]
  HepSE_cholecystitis: 0

## O=C1c2c(O)ccc(O)c2C(=O)c2c(NCCNCCO)ccc(NCCNCCO)c21 [MITOXANTRONE]
Hepatotoxicity [1]
  HepSE_elevated liver function tests: 0
Hepatotoxicity [2]
  HepSE_liver fatty: 0
Hepatotoxicity [3]
  HepSE_hepatic necrosis: 0
Hepatotoxicity [4]
  HepSE_bilirubinemia: 0
Hepatotoxicity [5]
  HepSE_liver disease: 0
Hepatotoxicity [6]
  HepSE_cholelithiasis: 0
Hepatotoxicity [7]
  HepSE_hepatitis: 1
Hepatotoxicity [8]
  HepSE_hepatic failure: 0
Hepatotoxicity [9]
  HepSE_liver function tests abnormal: 0
Hepatotoxicity [10]
  HepSE_hepatomegaly: 0
Hepatotoxicity [11]
  HepSE_cirrhosis: 0
Hepatotoxicity [12]
  HepSE_jaundice: 1
Hepatotoxicity [13]
  HepSE_Combined Scores: 2
Hepatotoxicity [14]
  HepSE_cholecystitis: 0

## NC(=O)C[S+]([O-])C(c1ccccc1)c1ccccc1 (configuration not stated) [MODAFINIL]
Hepatotoxicity [1]
  HepSE_elevated liver function tests: 0
Hepatotoxicity [2]
  HepSE_liver fatty: 0
Hepatotoxicity [3]
  HepSE_hepatic necrosis: 0
Hepatotoxicity [4]
  HepSE_bilirubinemia: 0
Hepatotoxicity [5]
  HepSE_liver disease: 0
Hepatotoxicity [6]
  HepSE_cholelithiasis: 0
Hepatotoxicity [7]
  HepSE_hepatitis: 0
Hepatotoxicity [8]
  HepSE_hepatic failure: 0
Hepatotoxicity [9]
  HepSE_liver function tests abnormal: 0
Hepatotoxicity [10]
  HepSE_hepatomegaly: 0
Hepatotoxicity [11]
  HepSE_cirrhosis: 0
Hepatotoxicity [12]
  HepSE_jaundice: 0
Hepatotoxicity [13]
  HepSE_Combined Scores: 0
Hepatotoxicity [14]
  HepSE_cholecystitis: 0

## CCOC(=O)[C@H](CCc1ccccc1)N[C@@H](C)C(=O)N1Cc2cc(OC)c(OC)cc2C[C@H]1C(=O)O [MOEXIPRIL]
Hepatotoxicity [1]
  HepSE_elevated liver function tests: 0
Hepatotoxicity [2]
  HepSE_liver fatty: 0
Hepatotoxicity [3]
  HepSE_hepatic necrosis: 0
Hepatotoxicity [4]
  HepSE_bilirubinemia: 0
Hepatotoxicity [5]
  HepSE_liver disease: 0
Hepatotoxicity [6]
  HepSE_cholelithiasis: 0
Hepatotoxicity [7]
  HepSE_hepatitis: 1
Hepatotoxicity [8]
  HepSE_hepatic failure: 0
Hepatotoxicity [9]
  HepSE_liver function tests abnormal: 0
Hepatotoxicity [10]
  HepSE_hepatomegaly: 0
Hepatotoxicity [11]
  HepSE_cirrhosis: 0
Hepatotoxicity [12]
  HepSE_jaundice: 0
Hepatotoxicity [13]
  HepSE_Combined Scores: 1
Hepatotoxicity [14]
  HepSE_cholecystitis: 0

## CCc1c(C)[nH]c2c1C(=O)C(CN1CCOCC1)CC2 (configuration not stated) [MOLINDONE]
Hepatotoxicity [1]
  HepSE_elevated liver function tests: 0
Hepatotoxicity [2]
  HepSE_liver fatty: 0
Hepatotoxicity [3]
  HepSE_hepatic necrosis: 0
Hepatotoxicity [4]
  HepSE_bilirubinemia: 0
Hepatotoxicity [5]
  HepSE_liver disease: 0
Hepatotoxicity [6]
  HepSE_cholelithiasis: 0
Hepatotoxicity [7]
  HepSE_hepatitis: 0
Hepatotoxicity [8]
  HepSE_hepatic failure: 0
Hepatotoxicity [9]
  HepSE_liver function tests abnormal: 0
Hepatotoxicity [10]
  HepSE_hepatomegaly: 0
Hepatotoxicity [11]
  HepSE_cirrhosis: 0
Hepatotoxicity [12]
  HepSE_jaundice: 0
Hepatotoxicity [13]
  HepSE_Combined Scores: 0
Hepatotoxicity [14]
  HepSE_cholecystitis: 0

## C[C@@H]1C[C@H]2[C@@H]3CCC4=CC(=O)C=C[C@]4(C)[C@@]3(Cl)[C@@H](O)C[C@]2(C)[C@@]1(O)C(=O)CCl [MOMETASONE]
Hepatotoxicity [1]
  HepSE_elevated liver function tests: 0
Hepatotoxicity [2]
  HepSE_liver fatty: 0
Hepatotoxicity [3]
  HepSE_hepatic necrosis: 0
Hepatotoxicity [4]
  HepSE_bilirubinemia: 0
Hepatotoxicity [5]
  HepSE_liver disease: 0
Hepatotoxicity [6]
  HepSE_cholelithiasis: 0
Hepatotoxicity [7]
  HepSE_hepatitis: 0
Hepatotoxicity [8]
  HepSE_hepatic failure: 0
Hepatotoxicity [9]
  HepSE_liver function tests abnormal: 0
Hepatotoxicity [10]
  HepSE_hepatomegaly: 0
Hepatotoxicity [11]
  HepSE_cirrhosis: 0
Hepatotoxicity [12]
  HepSE_jaundice: 0
Hepatotoxicity [13]
  HepSE_Combined Scores: 0
Hepatotoxicity [14]
  HepSE_cholecystitis: 0

## Oc1ccc(OCc2ccccc2)cc1 [MONOBENZONE]
Hepatotoxicity [1]
  HepSE_elevated liver function tests: 0
Hepatotoxicity [2]
  HepSE_liver fatty: 0
Hepatotoxicity [3]
  HepSE_hepatic necrosis: 0
Hepatotoxicity [4]
  HepSE_bilirubinemia: 0
Hepatotoxicity [5]
  HepSE_liver disease: 0
Hepatotoxicity [6]
  HepSE_cholelithiasis: 0
Hepatotoxicity [7]
  HepSE_hepatitis: 0
Hepatotoxicity [8]
  HepSE_hepatic failure: 0
Hepatotoxicity [9]
  HepSE_liver function tests abnormal: 0
Hepatotoxicity [10]
  HepSE_hepatomegaly: 0
Hepatotoxicity [11]
  HepSE_cirrhosis: 0
Hepatotoxicity [12]
  HepSE_jaundice: 0
Hepatotoxicity [13]
  HepSE_Combined Scores: 0
Hepatotoxicity [14]
  HepSE_cholecystitis: 0

## CC(C)(O)c1ccccc1CC[C@@H](SCC1(CC(=O)O)CC1)c1cccc(/C=C/c2ccc3ccc(Cl)cc3n2)c1 [MONTELUKAST]
Hepatotoxicity [1]
  HepSE_elevated liver function tests: 0
Hepatotoxicity [2]
  HepSE_liver fatty: 0
Hepatotoxicity [3]
  HepSE_hepatic necrosis: 0
Hepatotoxicity [4]
  HepSE_bilirubinemia: 0
Hepatotoxicity [5]
  HepSE_liver disease: 1
Hepatotoxicity [6]
  HepSE_cholelithiasis: 0
Hepatotoxicity [7]
  HepSE_hepatitis: 1
Hepatotoxicity [8]
  HepSE_hepatic failure: 0
Hepatotoxicity [9]
  HepSE_liver function tests abnormal: 0
Hepatotoxicity [10]
  HepSE_hepatomegaly: 0
Hepatotoxicity [11]
  HepSE_cirrhosis: 0
Hepatotoxicity [12]
  HepSE_jaundice: 0
Hepatotoxicity [13]
  HepSE_Combined Scores: 2
Hepatotoxicity [14]
  HepSE_cholecystitis: 0
